Holding throughout (type): cell-based
For one data set, the system named is PBMC. The experiment in a line: WST-1 cytotoxicity assay in PBMC. As to conditions: 5 days incubation. How it is done:
Cell viability is assessed with WST-1 assay. Cells are incubated with the tetrazolium salt WST-1 (4-[3-(4-lodophenyl)-2-(4-nitrophenyl)-2H-5-tetrazolio]-1,3-benzene disulfonate) for 2 hours at 37 °C. During this time viable cells convert WST-1 into water soluble formazan dyes. The OD of the supernatant is measured at 550 nm.
Fig 5 - PBMC were obtained and stimulated as described in legend of Fig. 4. […] After a 5 days incubation period cellular viability was assessed by WST-1 cytotoxicity assay where viable cells convert WST-1 into a coloured formazan dye that can be measured spectrophotometrically.
(Tetrazolium assays rely on reduction of a dye to a coloured formazan, in cell work by metabolically active cells.)

The next data set has as its system HIV-1. The experiment in a line: HIV-1 infection of PHA-stimulated PBMC, p24-core antigen ELISA (strain not specified in the result). As to conditions: Human immunodeficiency virus 1; PHA-stimulated PBMC infected with HIV-1AT or HIV-1BaL; p24 after 4 and 5 days; read-out: Concentrations that inhibit HIV-1 production. As for the experimental part: (§1) HIV-1 strain Ba-L is grown to high titer in MDM. The 50% tissue culture infectious dose (TCID50) of the virus stock is determined by endpoint dilution with serial fourfold dilutions in a 96-well microtiter plate on MDM. HIV-1 strain AT is grown to high titer in PHA-stimulated PBMC. The TCID50 of the virus stock is determined by endpoint dilution with serial fourfold dilutions in a 96-well microtiter plate on PBMC.

The next data set deals with HIV-1Ba-L. The experiment in a line: HIV-1 infection of monocyte-derived macrophages, p24-core antigen ELISA. To be noted: Human immunodeficiency virus 1, Macrophage, MDM infected with HIV-1Ba-L, multiplicity of infection 0.02. As for the experimental part: Cells are washed twice and monocytes are purified by countercurrent centrifugal elutriation. Cells are >98% monocytes by criteria of cell morphology on May-Grunwald-Giemsa-stained cytosmears and by nonspecific esterase staining using alpha-naphtylacetate (Sigma Chemical Co., St. Louis, MO) as substrate.
as §1
PBMC were washed twice and monocytes were purified by countercurrent centrifugal elutriation. […] Concentrations above 0.3 µM APHS inhibit p24 production. 30 µM APHS inhibits HIV-1 replication by 88%.

The subject of data set [1] is Monocyte-derived macrophages (MDM). In words: MTT cytotoxicity assay in monocyte-derived macrophages. As to conditions: 4 days incubation in different concentrations. As for the experimental part:
Cell viability is assessed by the MTT assay. In short, cells are incubated with MTT 3-(4,5-dimethylthiazol-2-yl)-2,5-diphenyltetrazollumbromide (Sigma) for 2 hours at 37 °C. During this time viable cells convert MTT into […] formazan dyes. Afterwards crystals are solubilised with a solution containing isopropanol. The OD of the supernatant is measured at 550 nm.
Fig 3 - Monocyte-derived macrophages (MDM) were obtained like described in legend of Fig.2. […] After a 4 days incubation period cellular viability was assessed by MTT cytotoxicity assay where viable cells convert MTT into a colored formazan dye that can be measured spectrophotometrically.

A further data set concerns HIV-1BaL. In words: HIV-1BaL infection of PHA-stimulated PBMC, p24-core antigen ELISA. As for the experimental part: as §1
(In general: In an ELISA, binding on a coated surface is turned into a signal by an enzyme label.)

`CCCCC#CCSc1ccccc1OC(C)=O` [APHS, o-(acetoxy-phenyl)hept-2-ynyl sulphide]: the “Concentrations found to reduce viability” value in the data set with PBMC is given as no less than 100 µM. Further, the minimal effective concentration is greater than 1 µM in the data set with HIV-1; greater than 0.3 µM in the data set with HIV-1Ba-L (supernatant after 4 and 5 days, read-out: Concentrations that inhibit p24 production). Further, the inhibition at 30 µM in the data set with HIV-1Ba-L (30 µM APHS, read-out: inhibits HIV-1 replication by) was determined as 88%; in the data set with HIV-1BaL (Human immunodeficiency virus 1, 30 µM APHS, read-out: inhibit HIV-1BaL replication by), 100%. In data set [1], the “cytotoxicity (cellular viability, MTT)” value is listed as “None of the tested concentrations of APHS was found to be cytotoxic”. In addition, the inhibition at 1 µM with HIV-1BaL (Human immunodeficiency virus 1, 1 µM APHS, when infectivity is lower (Fig 4c), read-out: inhibit HIV-1BaL production by) was found to be 50%.

(Values after EP1064940A1, “Antiviral therapy” (Universitair Medisch Centrum Utrecht, priority 1999, dated 2001).)
